According to patent US8163737B2 (Vertex Pharmaceuticals Incorporated, priority 2006, dated 2012):

Key:
endogenous CGRP receptor = endogenous CGRP receptor (Homo sapiens, UniProt O60894+Q16602); test: CGRP functional antagonism using SK-N-MC-BLA (4C10), β-lactamase transcriptional reporter assay; format: cell-based; details: SK-N-MC (4C10) cells, inhibition of β-lactamase expression in the presence of 200 pM CGRP
[1] = biological target: T1, CGRP receptor (SK-N-MC membrane) (Homo sapiens, UniProt O60894+Q16602); test: I125-CGRP binding displacement assay on purified SK-N-MC membrane
T1 construct: Purified SK-N-MC membrane was purchased from Perkin Elmer; purchased Perkin Elmer; host or cells: SK-N-MC membrane
Description: Purified SK-N-MC membrane was purchased from Perkin Elmer. The membrane was thawed quickly and placed on ice. The compounds were diluted with CGRP binding solution (25 mM Tris-HCl, pH7.4, 5 mM MgCl2, 0.1% BSA and 0.05% Tween). The membrane was diluted 1:20 with the binding solution and homogenized with Tissue Matster-50 Homogenizer (Omni International) for 30 sec. The homogenized membrane was added to compounds in the binding solution. […] After 2 hour incubation at room temperature, the reaction was stopped by rapid filtration through 0.5% PEI treated GF/C filter plate (Perkin Elmer) and the filter plate was washed with ice-cold washing solution (50 mM Tris HCl, pH7.4, 5 mM MgCl2 and 0.1% BSA) using cell harvestor (Tomtec). The radioactivity of the filter plates were read on Topcount (Packard). The nonspecific binding was determined in the control reaction where 1 uM unlabelled CGRP was preincubated with the membrane prior to I125-CGRP addition. The total binding was determined in the control reaction of the membrane and I125-CGRP in the absence of compound. The percent displacement of I125-CGRP with compounds was calculated using nonspecific and total binding controls. The curve fitting was carried out using MOD3.

Sequence of endogenous CGRP receptor (Q16602 23-461): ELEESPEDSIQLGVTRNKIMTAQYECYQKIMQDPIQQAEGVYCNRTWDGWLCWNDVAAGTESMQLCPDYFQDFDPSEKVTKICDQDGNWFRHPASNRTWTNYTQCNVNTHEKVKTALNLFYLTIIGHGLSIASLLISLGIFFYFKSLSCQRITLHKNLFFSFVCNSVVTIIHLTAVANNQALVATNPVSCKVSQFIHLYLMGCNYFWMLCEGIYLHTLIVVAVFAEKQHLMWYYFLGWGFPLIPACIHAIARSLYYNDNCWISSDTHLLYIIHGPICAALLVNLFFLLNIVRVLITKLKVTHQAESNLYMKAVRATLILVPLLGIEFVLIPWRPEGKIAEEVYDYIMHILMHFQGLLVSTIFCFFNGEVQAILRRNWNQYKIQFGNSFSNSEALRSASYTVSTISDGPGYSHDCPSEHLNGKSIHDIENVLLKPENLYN
Sequence of endogenous CGRP receptor (O60894 27-148): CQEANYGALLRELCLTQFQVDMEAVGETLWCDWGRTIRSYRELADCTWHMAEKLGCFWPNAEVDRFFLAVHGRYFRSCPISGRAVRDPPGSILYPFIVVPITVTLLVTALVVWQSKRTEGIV
T1 sequence (Q16602 23-461): as the sequence (Q16602 23-461) above
T1 sequence (O60894 27-148): as the sequence (O60894 27-148) above

Structure (SMILES) | IC50 (endogenous CGRP receptor) [nM] | Ki [1] [nM]
CC(C)(C)CCN1C(=O)[C@H](CC(=O)N2CCC(N3CCc4ccccc4NC3=O)CC2)SC1c1ccccc1C1CCN(C(=O)OC(C)(C)C)CC1 (mixture of isomers) [Compound 500] | > 5000 | < 1000
CC(C)(C)CCN1C(=O)C(CC(=O)N2CCC(N3CCc4ccccc4NC3=O)CC2)SC1c1cccc(F)c1NCCN1CCOCC1 (stereo in doubt) [Compound 506, 3-(1-(2-((5S)-2-(2-(2-Morpholinoethylamino)-3-fluorophenyl)-3-(3,3-dimethylbutyl)-4-oxothiazolidin-5-yl)acetyl)piperidin-4-yl)-4,5-dihydro-1H-benzo[d][1,3]diazepin-2(3H)-one] | < 1000 | < 1000
CC(C)(C)CCN1C(=O)C(CC(=O)N2CCC(n3c(=O)[nH]c4ncccc43)CC2)SC1c1cccc(F)c1NCCN1CCOCC1 (stereo in doubt) [Compound 517, 1-(1-(2-((5S)-2-(2-(2-Morpholinoethylamino)-3-fluorophenyl)-3-(3,3-dimethylbutyl)-4-oxothiazolidin-5-yl)acetyl)piperidin-4-yl)-1H-imidazo[4,5-b]pyridin-2(3H)-one] | < 1000 | < 1000
O=C(CC1SC(c2ccccc2)N(C2CCCCC2)C1=O)N1CCC(N2Cc3ccccc3NC2=O)CC1 (stereo not drawn) [Compound 1] | < 1000 | < 1000
Cc1cc(C2SC(CC(=O)N3CCC(N4CCc5ccccc5NC4=O)CC3)C(=O)N2CCC(C)(C)C)cc2cn[nH]c12 (stereo not drawn) [Compound 3] | < 1000 | < 1000
CC(C)(C)CCN1C(=O)C(CC(=O)N2CCC(N3CCc4ccccc4NC3=O)CC2)SC1c1ccccc1 (stereo not drawn) [Compound 8] | < 1000 | < 1000
CC(C)CN1C(=O)C(CC(=O)N2CCC(N3Cc4ccccc4NC3=O)CC2)SC1c1ccccc1 (stereo not drawn) [Compound 9] | < 1000 | < 1000
CC(C)CCN1C(=O)C(CC(=O)N2CCC(N3CCc4ccccc4NC3=O)CC2)SC1c1ccccc1N1CCOCC1 (stereo not drawn) [Compound 10] | < 1000 | < 1000
CC(C)CCN1C(=O)C(CC(=O)N2CCC(N3Cc4ccccc4NC3=O)CC2)SC1c1ccccc1 (stereo not drawn) [Compound 12] | < 1000 | < 1000
CC(C)CCN1C(=O)C(CC(=O)N2CCC(N3Cc4ccccc4NC3=O)CC2)SC12c1ccccc1-c1ccccc12 (stereo not drawn) [Compound 14] | < 1000 | < 1000
CC(C)(C)CCN1C(=O)C(CC(=O)N2CCC(N3CCc4ccccc4NC3=O)CC2)SC12CCSCC2 (stereo not drawn) [Compound 15] | < 1000 | < 1000
O=C(CC1SC(c2c(F)cccc2F)N(CC2CCCCC2)C1=O)N1CCC(N2CCc3ccccc3NC2=O)CC1 (stereo not drawn) [Compound 16] | < 1000 | < 1000
COc1ccc(C2SC(CC(=O)N3CCC(n4cc(-c5ccccc5)[nH]c4=O)CC3)C(=O)N2CCC(C)C)cc1OC (stereo not drawn) [Compound 19] | > 5000 | > 5000
Cc1cc(C2SC(CC(=O)N3CCC(N4CCc5ccccc5NC4=O)CC3)C(=O)N2CC2CCCCC2)cc2cn[nH]c12 (stereo not drawn) [Compound 20] | < 1000 | < 1000
CC(C)(C)CCN1C(=O)C(CC(=O)N2CCC(N3CCc4ccccc4NC3=O)CC2)SC1c1ccccc1-n1ccnc1 (stereo not drawn) [Compound 28] | < 1000 | < 1000
COCCN1C(=O)C(CC(=O)N2CCC(N3Cc4ccccc4NC3=O)CC2)SC1c1ccccc1 (stereo not drawn) [Compound 30] | 1000 to 5000 | < 1000
CC(C)CCN1C(=O)C(CC(=O)N2CCC(N3Cc4ccccc4NC3=O)CC2)SC1c1cccc(Cl)c1 (stereo not drawn) [Compound 33] | < 1000 | < 1000
CC(C)CCN1C(=O)C(CC(=O)N2CCC(N3CCc4ccccc4NC3=O)CC2)SC1C1CCCCC1 (stereo not drawn) [Compound 37] | < 1000 | < 1000
Cc1cccc(C2SC(CC(=O)N3CCC(N4Cc5ccccc5NC4=O)CC3)C(=O)N2CCC(C)C)c1 (stereo not drawn) [Compound 41] | < 1000 | < 1000
CC(C)CC1SC(CC(=O)N2CCC(N3Cc4ccccc4NC3=O)CC2)C(=O)N1CCc1ccncc1 (stereo not drawn) [Compound 43] | 1000 to 5000 | < 1000
CC(C)CCN1C(=O)C(CC(=O)N2CCC(N3CCc4ccccc4NC3=O)CC2)SC1c1ccc(F)cc1F (stereo not drawn) [Compound 44] | < 1000 | < 1000
CC(C)(C)CCN1C(=O)C(CC(=O)N2CCC(N3CCc4ccccc4NC3=O)CC2)SC1c1cccc(F)c1F (stereo not drawn) [Compound 48] | < 1000 | < 1000
CC(C)(C)CCN1C(=O)C(CC(=O)N2CCC(N3Cc4ccccc4NC3=O)CC2)SC1c1ccccc1N1CCC(O)CC1 (stereo not drawn) [Compound 49] | < 1000 | < 1000
O=C(CC1SC(c2ccccc2)N(CCc2ccncc2)C1=O)N1CCC(n2cc(-c3ccccc3)[nH]c2=O)CC1 (stereo not drawn) [Compound 53] | > 5000 | > 5000
CC(C)(C)CCN1C(=O)C(CC(=O)N2CCC(N3CCc4ccccc4NC3=O)CC2)SC1c1ccc(F)cc1F (stereo not drawn) [Compound 54] | < 1000 | < 1000

Structure (SMILES) | IC50 (endogenous CGRP receptor) [nM] | Ki [1] [nM]
O=C(CC1SC(c2ccccc2)N(CCc2ccccc2)C1=O)N1CCC(N2Cc3ccccc3NC2=O)CC1 (stereo not drawn) [Compound 58] | < 1000 | < 1000
CC(C)(C)CCN1C(=O)C(CC(=O)N2CCC(N3Cc4ccccc4NC3=O)CC2)SC1c1ccccc1-n1ccnc1 (stereo not drawn) [Compound 60] | < 1000 | < 1000
COc1cccc(C2SC(CC(=O)N3CCC(n4cc(-c5ccccc5)[nH]c4=O)CC3)C(=O)N2CCC(C)C)c1 (stereo not drawn) [Compound 61] | 1000 to 5000 | > 5000
CC(C)CCN1C(=O)C(CC(=O)N2CCC(N3Cc4ccccc4NC3=O)CC2)SC1c1ccc(C#N)cc1 (stereo not drawn) [Compound 63] | < 1000 | < 1000
COc1ccccc1C1SC(CC(=O)N2CCC(n3cc(-c4ccccc4)[nH]c3=O)CC2)C(=O)N1CCC(C)C (stereo not drawn) [Compound 64] | 1000 to 5000 | < 1000
CC(C)CCN1C(=O)C(CC(=O)N2CCC(N3Cc4ccccc4NC3=O)CC2)[S+]([O-])C1c1ccc(F)cc1F (stereo not drawn) [Compound 66] | < 1000 | < 1000
CC(C)CCN1C(=O)C(CC(=O)N2CCC(N3Cc4ccccc4NC3=O)CC2)SC1c1cccc(F)c1 (stereo not drawn) [Compound 67] | < 1000 | < 1000
CC(C)(C)CCN1C(=O)C(CC(=O)N2CCC(N3CCc4ccccc4NC3=O)CC2)SC1c1ccccc1N1CCOCC1 (stereo not drawn) [Compound 70] | < 1000 | < 1000
CC(C)CCN1C(=O)C(CC(=O)N2CCC(N3Cc4ccccc4NC3=O)CC2)SC1c1c(Cl)cccc1Cl (stereo not drawn) [Compound 76] | < 1000 | < 1000
CC(C)CCN1C(=O)C(CC(=O)N2CCC(N3CCc4ccccc4NC3=O)CC2)SC1c1ccccc1 (stereo not drawn) [Compound 78] | < 1000 | < 1000
CC(C)CCN1C(=O)C(CC(=O)N2CCC(N3CCc4ccccc4NC3=O)CC2)SC1c1ccc(F)cc1Cl (stereo not drawn) [Compound 79] | < 1000 | < 1000
COc1ccccc1C1SC(CC(=O)N2CCC(N3Cc4ccccc4NC3=O)CC2)C(=O)N1CCC(C)C (stereo not drawn) [Compound 80] | < 1000 | < 1000
CC(C)CCN1C(=O)C(CC(=O)N2CCC(N3Cc4ccccc4NC3=O)CC2)SC12CCSCC2 (stereo not drawn) [Compound 84] | < 1000 | < 1000
CC(C)CCN1C(=O)C(CC(=O)N2CCC(n3cc(-c4ccccc4)[nH]c3=O)CC2)SC1C1CCCC1 (stereo not drawn) [Compound 87] | 1000 to 5000 | 1000 to 5000
CC(C)(C)CCN1C(=O)C(CC(=O)N2CCC(N3CCc4ccccc4NC3=O)CC2)SC1c1ccccc1-n1cccn1 (stereo not drawn) [Compound 88] | < 1000 | < 1000
CC(C)(C)CCN1C(=O)C(CC(=O)N2CCC(N3Cc4ccccc4NC3=O)CC2)SC1c1ccccc1 (stereo not drawn) [Compound 93] | < 1000 | < 1000
CC(C)CCN1C(=O)C(CC(=O)N2CCC(n3c(=O)[nH]c4ccccc43)CC2)SC1c1ccccc1 (stereo not drawn) [Compound 104] | > 5000 | > 5000
CN1CCN(c2ccccc2[C@@H]2SC(CC(=O)N3CCCCC3)C(=O)N2CCC(C)(C)C)CC1 (stereo partly drawn) [Compound 105] | > 5000 | > 5000
CCCCN1C(=O)C(CC(=O)N2CCC(N3Cc4ccccc4NC3=O)CC2)SC1c1ccccc1 (stereo not drawn) [Compound 107] | < 1000 | < 1000
O=C(CC1SC(c2ccccc2)N(CC(F)(F)F)C1=O)N1CCC(N2Cc3ccccc3NC2=O)CC1 (stereo not drawn) [Compound 109] | 1000 to 5000 | < 1000
CC(C)CCN1C(=O)C(CC(=O)N2CCC(n3cc(-c4ccccc4)[nH]c3=O)CC2)SC1c1ccccc1 (stereo not drawn) [Compound 110] | > 5000 | > 5000
CC(C)CCN1C(=O)C(CC(=O)N2CCC(n3c(=O)[nH]c4ccccc43)CC2)S[C@H]1c1ccccc1N1CCC(O)CC1 (stereo partly drawn) [Compound 304] | – | < 1000
CN(C)[C@H]1CCN(c2ccccc2C2SC(CC(=O)N3CCC(n4c(=O)[nH]c5ncccc54)CC3)C(=O)N2CCC(C)(C)C)C1 (stereo partly drawn) [Compound 406] | – | < 1000
CC(C)(C)CCN1C(=O)[C@H](CC(=O)N2CCC(N3CCc4ccccc4NC3=O)CC2)SC1c1cccc(F)c1N1CCC(c2ccncc2)CC1 (stereo partly drawn) [Compound 557] | – | < 1000
CC(C)(C)CCN1C(=O)[C@H](CC(=O)N2CCC(N3CCc4ccccc4NC3=O)CC2)SC1c1cccc(F)c1C1CCN(C2CCC2)CC1 (stereo partly drawn) [Compound 558] | – | < 1000
